{
  "source": "patent US7049311B1",
  "about": "“Pyrrolbenzodiazepines” (Spirogen Limited, priority 1998, dated 2006)",
  "key": {"[1]": {"system": "CH1", "test": "Ovarian carcinoma cytotoxicity assay", "type": "cell-based", "details": "Homo sapiens, CH1, 96 h, read-out: IC50 CH1, 96 hours, sulphorhodamine B", "summary_of_the_method": "(§1)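 Cells attached overnight, then read 96 hours later by sulphorhodamine B staining of TCA-fixed cells, with absorbance at 540 nm. IC50 taken from concentration versus % absorbance relative to untreated wells; cisR lines are cisplatin-resistant.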"}, "[2]": {"system": "CH1cisR", "test": "Ovarian carcinoma cytotoxicity assay", "type": "cell-based", "details": "Homo sapiens, CH1cisR, 96 h, read-out: IC50 CH1cisR, cisplatin-resistant, 96 hours, sulphorhodamine B", "summary_of_the_method": "as §1"}, "[3]": {"system": "SKOV-3", "test": "Ovarian carcinoma cytotoxicity assay", "type": "cell-based", "details": "Homo sapiens, SK-OV-3, 96 h, read-out: IC50 Skov3, 96 hours, sulphorhodamine B", "summary_of_the_method": "as §1"}, "[4]": {"system": "LOX IMVI", "test": "NCI in vitro cytotoxicity screen", "type": "cell-based", "details": "Homo sapiens, 48 h, read-out: LC50", "summary_of_the_method": "(§2)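 Human tumour cells were seeded at 5000-40,000 per well and preincubated 24 hours at 37° C. Compounds were added at five 10-fold dilutions (10^−4 to 10^−8 […]) for 48 hours continuous exposure in 5% CO2. Viability was measured by sulphorhodamine B protein staining and optical density, giving LC50 values.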"}, "[5]": {"system": "SK-MEL-2", "test": "NCI in vitro cytotoxicity screen", "type": "cell-based", "details": "Homo sapiens, SK-MEL-2, 48 h, read-out: LC50", "summary_of_the_method": "as §2"}, "[6]": {"system": "SF-539", "test": "NCI in vitro cytotoxicity screen", "type": "cell-based", "details": "Homo sapiens, SF-539, 48 h, read-out: LC50", "summary_of_the_method": "as §2"}, "[7]": {"system": "M14", "test": "NCI in vitro cytotoxicity screen", "type": "cell-based", "details": "Homo sapiens, M14, 48 h, read-out: LC50", "summary_of_the_method": "as §2"}, "[8]": {"system": "MALME-3M", "test": "NCI in vitro cytotoxicity screen", "type": "cell-based", "details": "Homo sapiens, Malme-3M, 48 h, read-out: LC50", "summary_of_the_method": "as §2"}, "[9]": {"system": "RXF 393", "test": "NCI in vitro cytotoxicity screen", "type": "cell-based", "details": "Homo sapiens, RXF 393, 48 h, read-out: LC50", "summary_of_the_method": "as §2"}, "[10]": {"system": "SK-MEL-28", "test": "NCI in vitro cytotoxicity screen", "type": "cell-based", "details": "Homo sapiens, SK-MEL-28, 48 h, read-out: LC50", "summary_of_the_method": "as §2"}, "[11]": {"system": "NCI-H522", "test": "NCI in vitro cytotoxicity screen", "type": "cell-based", "details": "Homo sapiens, NCI-H522, 48 h, read-out: LC50", "summary_of_the_method": "as §2"}, "[12]": {"system": "SF-295", "test": "cells", "type": "cell-based", "details": "Homo sapiens, SF-295, 48 h, read-out: LC50", "method": "The National Cancer Institute (NCI), Bethesda, Md., USA has available an in vitro cytotoxicity screen which consists of approximately 60 human tumour cell lines against which compounds are tested at a minimum of five concentrations each differing 10-fold. A 48 hour continuous exposure protocol is used, where cell viability or growth is estimated with an SRB protein assay.\nThe test compounds were evaluated against approximately 60 human tumour cell lines. The NCI screening procedures were described in detail by Monks and co-workers (Monks, A et al., Journal of the National Cancer Institute, 1991, 83, 757). Briefly, cell suspensions were diluted according to the particular cell type and the expected target cell density (5000-40,000 cells per well based on cell growth characteristics), and added by pipette (100 μL) into 96-well microtitre plates. The cells were allowed a preincubation period of 24 hours at 37° C. for stabilisation. Dilutions at twice the intended test concentration were added at time zero in 100 μL aliquots to the wells. The test compounds were evaluated at five 10-fold dilutions (10^−4, 10^−5, 10^−6, 10^−7 and 10^−8 μM). […] A plate reader was used to read the optical densities and a microcomputer processed the readings into LC50 values, which is the dosage required to kill half of the cells."}, "[13]": {"system": "A2780", "test": "Ovarian carcinoma cytotoxicity assay", "type": "cell-based, human", "details": "Homo sapiens, A2780, 96 h, read-out: IC50 A2780, 96 hours, sulphorhodamine B", "summary_of_the_method": "as §1"}, "[14]": {"system": "A2780cisR", "test": "Ovarian carcinoma cytotoxicity assay", "type": "cell-based, human", "details": "Homo sapiens, A2780cisR, 96 h, read-out: IC50 A2780cisR, cisplatin-resistant, 96 hours, sulphorhodamine B", "summary_of_the_method": "as §1"}},
  "note": "pIC50: −log10 of the molar value.",
  "data": [
    {"smiles": "COc1cc2c(cc1OCCC(=O)N1CCCC1)N=C[C@@H]1CCCN1C2=O", "note": "[UP2005 (161), 3-(7-methoxy-5-oxy(11aS)-2,3,5,11a-tetrahydro-1H-benzo[e]pyrrolo[1,2-a][1,4]diazepin-8-yloxy)-1-perhydro-1-pyrrolyl-1-propanone]", "values": [
      {"measurement": "pIC50", "setting": "[1]", "value": 5.85},
      {"measurement": "pIC50", "setting": "[2]", "value": 5.73},
      {"measurement": "pIC50", "setting": "[3]", "value": 5.27},
      {"measurement": "CC50", "setting": "[4]", "value": 9.2, "unit": "µM"},
      {"measurement": "CC50", "setting": "[5]", "value": 7.6, "unit": "µM"},
      {"measurement": "CC50", "setting": "[6]", "value": 7.7, "unit": "µM"},
      {"measurement": "CC50", "setting": "[7]", "value": 6.2, "unit": "µM"},
      {"measurement": "CC50", "setting": "[8]", "value": 7.5, "unit": "µM"},
      {"measurement": "CC50", "setting": "[9]", "value": 6.8, "unit": "µM"},
      {"measurement": "CC50", "setting": "[10]", "value": 6.5, "unit": "µM"},
      {"measurement": "CC50", "setting": "[11]", "value": 8.7, "unit": "µM"},
      {"measurement": "CC50", "setting": "[12]", "value": 8.8, "unit": "µM"},
      {"measurement": "pIC50", "setting": "[13]", "value": 5.82},
      {"measurement": "pIC50", "setting": "[14]", "value": 5.37}
    ]}
  ]
}
